The values that follow come from patent publication US20220249637A1, “COMBINATION THERAPY OF A CELL-MEDIATED CYTOTOXIC THERAPY AND AN INHIBITOR OF A PROSURVIVAL BCL2 FAMILY PROTEIN” (Juno Therapeutics, Inc., priority 2019, published 2022).

One experiment relates to RL target cells. Put plainly: Co-culture of tumor cells and CAR T cells, venetoclax added at initiation or 24, 48 or 72 hours later (Example 9): tumor cell killing. It is filed as cell-based, human. How it is done: FIGS. 14A and 14B show the number of CD3+CAR+ T cells and RL target cells, respectively, following a 6-day co-culture. Various concentrations of an exemplary BCL2 inhibitor were provided in the co-culture at its initiation, or 24, 48, or 72 hours after the initiation of co-culture.
Thus, in some cases, the cytotoic effects of a BCL2 inhibitor, e.g. venetoclax, and a T cell therapy (e.g. CAR T cells) may be synergistic to result in cell death of cells otherwise resistant to treatment with the T cell therapy alone. In some cases, administration of the inhibitor, e.g. venetoclax, may sensitize otherwise resistant cancer cells to CAR T cell-mediated killing when it is administered within or at about 7 days after administration of the cell therapy.

Another experiment deals with WSU-DLCL2. Put plainly: NucLight Red target cell killing by live cell imaging. Type of experiment: cell-based. How it is done: (§1) The cytolytic activity of anti-CD19 CAR T cells against two additional CD19-expressing lymphoma target cells lines, SUDHL6 and WSU-DLCL2, was assessed and compared to cytolytic activity against K562.CD19 target cells. Target cells were engineered with a lentiviral reagent to express NucLight Red (NLR) to permit tracking of target cells by microscopy. Anti-CD19 CAR-expressing T cell compositions were generated from two human adult donors, substantially as described above. Target cells were co-cultured with the donor-derived CAR T cell compositions for up to 120 hours at an E:T ratio of 2.5:1. Red target cell counts were tracked over time by live cell imaging and counts were normalized to the number of red target cells at baseline to determine the fold-change in target cells over time.
(§2) Anti-CD19 CAR-expressing T cell compositions were generated as described in Example 1 and were cultured with a CD19-expressing lymphoma target cell lines, either SUDHL6, WSU-DLCL2, or Granta-519 at an E:T ratio of 2.5:1. The co-cultures were carried out in the presence of 20 nM or 200 nM of the exemplary BCL2 inhibitor, venetoclax. As controls, target tumor cell lines were incubated only in the presence of the inhibitor or the anti-CD19 CAR T cells. Target cells were labeled with NucLight Red (NLR) to permit tracking of target cells by microscopy and target cell killing was monitored by the loss of fluorescent signal over time, substantially as described in Example 1.

The test system of another experiment is SUDHL6. The experiment is described as above. Type of experiment: cell-based. The note with it: venetoclax alone, 200 nM. How it is done:
as §1, §2

As for `CC1(C)CCC(CN2CCN(c3ccc(C(=O)NS(=O)(=O)c4ccc(NCC5CCOCC5)c([N+](=O)[O-])c4)c(Oc4cnc5[nH]ccc5c4)c3)CC2)=C(c2ccc(Cl)cc2)C1` [venetoclax], in the experiment with RL target cells (inhibitor administered when activation-induced cell death of CAR T cells has peaked (e.g. 2-7 days after CAR T cells), Example 9), the “antitumor effects of CAR T cells” value is “potent antitumor effects”. The “sensitization of tumor cells to CAR T cell-mediated killing” value in the experiment on RL target cells (therapeutic dose administered 48 or 72 hours after initiation of co-culture of tumor cells and CAR T cells) is listed as “able to sensitize the tumor cells to CAR T cell-mediated killing”. In addition, the “CD19-directed CAR T cell killing” value in the experiment on WSU-DLCL2 (co-culture with anti-CD19 CAR T cells E:T 2.5:1, 20 or 200 nM venetoclax) was “enhanced”. Also, the tumor cell killing entry in the experiment on WSU-DLCL2 (venetoclax alone, 20 nM or 200 nM) is listed as “did not substantially impact tumor cell killing”; with SUDHL6, “killing of the sensitive tumor cell line SUDHL6 was achieved”.
